Assay [1] has as its target Nociceptin receptor (Cavia porcellus, UniProt P47748). As to the kind of experiment: Antagonist activity at NOP receptor in Albino guinea pig ileum assessed as effect on electrically stimulated contractions.
The target in assay [2] is Nociceptin receptor (Rattus norvegicus, UniProt P35370). As to the kind of experiment: Antagonist activity at NOP receptor in Sprague-Dawley rat vas deferens assessed as effect on electrically stimulated contractions.
Assay [3] has as its target Nociceptin receptor (Mus musculus, UniProt P35377). As to the kind of experiment: Antagonist activity at NOP receptor in Swiss mouse vas deferens […]. (GTPγS resists hydrolysis and so accumulates on activated G proteins.)

Among the data in BindingDB's records for doi:10.1016/j.bmc.2007.04.026 (University of Ferrara, 2007) are Kd values, retold here.

Where a SMILES comes first, the peptide text is derived from it. [ ]: non-standard residue; d: D form. ξ: configuration not given here. Phe(4-F) = N[C@@H](Cc1ccc(F)cc1)C(=O)O; Aib = CC(C)(N)C(=O)O; ξDap = NCC(N)C(=O)O

Sequence of Nociceptin receptor (Mus musculus, UniProt P35377) (P35377 whole entry): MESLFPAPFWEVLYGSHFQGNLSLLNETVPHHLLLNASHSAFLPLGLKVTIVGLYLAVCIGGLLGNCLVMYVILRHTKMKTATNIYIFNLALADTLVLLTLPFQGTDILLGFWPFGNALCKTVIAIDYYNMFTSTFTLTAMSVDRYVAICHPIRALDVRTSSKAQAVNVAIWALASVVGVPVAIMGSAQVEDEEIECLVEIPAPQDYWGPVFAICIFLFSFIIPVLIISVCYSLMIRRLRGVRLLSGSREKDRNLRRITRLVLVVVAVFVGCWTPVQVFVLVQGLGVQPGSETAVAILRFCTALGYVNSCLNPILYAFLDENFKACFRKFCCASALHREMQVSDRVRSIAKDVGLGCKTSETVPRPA
Sequence of Nociceptin receptor (Cavia porcellus, UniProt P47748) (P47748 whole entry): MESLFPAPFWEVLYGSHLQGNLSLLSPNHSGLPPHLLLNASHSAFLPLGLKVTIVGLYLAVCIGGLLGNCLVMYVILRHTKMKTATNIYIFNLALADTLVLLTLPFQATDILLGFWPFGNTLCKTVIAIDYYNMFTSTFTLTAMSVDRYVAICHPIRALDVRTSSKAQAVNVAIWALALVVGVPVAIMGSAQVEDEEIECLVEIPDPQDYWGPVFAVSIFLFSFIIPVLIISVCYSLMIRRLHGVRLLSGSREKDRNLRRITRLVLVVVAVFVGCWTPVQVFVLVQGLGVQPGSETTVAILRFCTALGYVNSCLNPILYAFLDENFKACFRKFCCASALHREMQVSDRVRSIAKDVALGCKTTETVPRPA
Sequence of Nociceptin receptor (Rattus norvegicus, UniProt P35370) (P35370 whole entry): as the sequence (P35377 whole entry) above, with F9Y, A335S counted along it

The term Kd denotes the free concentration of one partner at which half of the binding sites on the other are occupied at equilibrium, for simple one-to-one binding. On to `C[C@H](NC(=O)[C@H](CO)NC(=O)[C@H](CCCCN)NC(=O)[C@H](CCCN=C(N)N)NC(=O)C(C)(C)NC(=O)CNC(=O)[C@@H](NC(=O)[C@H](Cc1ccc(F)cc1)NC(=O)CNC(=O)C(CN)NC(=O)[C@@H](N)Cc1ccccc1)[C@@H](C)O)C(=O)N[C@@H](CCCN=C(N)N)C(=O)N[C@@H](CCCCN)C(=O)N[C@@H](CCCN=C(N)N)C(=O)N[C@@H](CCCCN)C(=O)N[C@@H](CC(N)=O)C(=O)N[C@@H](CCC(N)=O)C(N)=O` (stereo partly drawn) (H-F[ξDap]G[Phe(4-F)]TG[Aib]RKSARKRKNQ-NH2), for which the Kd in assay [1] came out at 316 pM; in assay [2] it was 603 pM; in assay [3], 794 pM.
